Reference: PMC9787607, “A Novel Protocol for the Synthesis of 1,2,4-Oxadiazoles Active against Trypanosomatids and Drug-Resistant Leukemia Cell Lines” (Tropical Medicine and Infectious Disease, 2022)

Assays:
Lucena-1 (K562/VCR) = assay: cells; type: cell-based, human; details: for RR (relative resistance) Lucena-1: (EC50 MDR cells)/(EC50 parental cells), Lucena-1/K562; for EC50: Homo sapiens, Lucena 1, 72 h, read-out: EC50 Lucena-1
Outline: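 K562 and its MDR sublines Lucena-1 (maintained in 60 nM VCR) and FEPS (500 nM DNR) seeded at 2 × 10^4 cells/mL in RPMI-1640 with 10% FBS, treated with compounds at 1–100 μM (0.5% DMSO controls). MTT 0.5 g/L for 3 h, A570 read; EC50 by logarithmic regression, three independent experiments.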

[1] = tested on: T. cruzi amastigotes (Tulahuen C2C4 LacZ strain); assay: microbe, parasite or virus in culture; type: cell-based, Trypanosoma cruzi; details: for viability at 50 µM: LLC-MK2, 120 h; for EC50: in LLC-MK2, 120 h, read-out: EC50 T. cruzi intracellular amastigotes; for S.I. (selectivity index): host cell/parasite EC50 ratio, LLC-MK2/T. cruzi
Experimental: To a monolayer of 1.0 × 10^7 LLC-MK2 cells in a 150 cm^2 culture flask were added 5.0 × 10^7 trypomastigotes of T. cruzi expressing the […] (Tulahuen C2C4 LacZ) in complete DMEM with 2.5% FBS. The infection was allowed to occur for 24 h, the supernatant was removed, and the cell monolayer was washed with PBS. Complete DMEM with 2.5% FBS was renewed every 2 days up to the sixth day after infection. Trypomastigote forms were collected daily from the supernatant between days 7 and 12 after infection, enriched by differential centrifugation (1500× g for 10 min, 5580× g for 20 min), and resuspended in complete DMEM with 5% FBS. Parasite density was determined by counting the mobile trypomastigotes on Neubauer chambers before use.
. The medium was renewed, and trypomastigote forms of T. cruzi (Tulahuen C2C4 LacZ strain, 2.0 × 10^5 parasites per well) were added. After incubation for 24 h at 37 °C in 5% CO2, the cell monolayer was washed with PBS to remove noninternalized parasites. DMEM without phenol red and 5% FBS was added, and infected cells were treated with compounds at a range of concentrations in triplicate (50 μM or 100–1 μM). Untreated infected cells and noninfected LLC-MK2 cells were used as negative and positive controls, respectively. Vehicle control containing DMEM without phenol red and 0.3% DMSO was maintained for comparison. After incubation for 120 h at 37 °C in 5% CO2, a solution containing […] and 0.8% IGEPAL CA-630 in PBS (30 µL per well), followed by further incubation for 2 h at 37 °C in 5% CO2. Absorbance was measured using a microplate reader at 570 nm.
(§1) The percent cell or parasite viability was calculated by the formula: % viability = [(A − P)/(N − P)] × 100, A = absorbance of specific well, P = positive control, N = negative control. Determination of half-maximal effective concentrations (EC50), calculated by logarithmic regression, and significance analysis (p < 0.05), using ANOVA and Dunnett’s test, by GraphPad Prism 7.0 software. The results are expressed as the mean and standard deviation (SD) of three independent experiments.

RAW 264.7 cells = assay: Cytotoxicity to RAW 264.7 cells (MTT); type: cell-based, murine; details: Mus musculus, RAW264.7; 48 h, MTT; read-out: EC50 RAW
Experimental: LLC-MK2 kidney fibroblasts (ATCC) and RAW 264.7 macrophages (ATCC) were cultivated in culture flasks in complete DMEM with 5% FBS at 37 °C in 5% CO2. The LLC-MK2 cell monolayer was detached by treatment with trypsin-EDTA 0.05% for 5 min at 37 °C. The RAW cell monolayer was detached mechanically. In both cases, the cells were centrifuged at 480× g for 6 min and resuspended in complete DMEM with 5% FBS, and the cell density was determined by counting with trypan-blue dye exclusion on Neubauer chambers before use.
RAW 264.7 cells were seeded in a 96-well microplate (2.0 × 10^4 cells per well) in complete DMEM with 5% FBS (120 µL per well). After incubation for 24 h at 37 °C in 5% CO2, the medium was renewed, and compounds were added at a range of concentrations in triplicate (100–1 μM). Untreated cells and cells treated with DMEM and 10% DMSO were used as negative and positive controls, respectively. Vehicle control containing DMEM and 0.3% DMSO was maintained for comparison. After incubation for 48 h at 37 °C in 5% CO2, the medium was renewed, and an MTT solution in PBS was added (3.0 mM, 20 µL per well). After incubation for 2 h at 37 °C in 5% CO2, the supernatant was removed, and MTT formazan was dissolved in DMSO (150 µL per well). Absorbance was measured using a microplate reader at 570 nm.
as §1

[2] = Trypanosoma cruzi, TULAHUEN, screening at 50 μM, 120 h, compared with untreated controls

SMILES	RR (relative resistance) Lucena-1 (Lucena-1 (K562/VCR))	EC50 (Lucena-1 (K562/VCR)) [µM]	viability at 50 µM [1, 2] [%]	EC50 ([1]; Trypanosoma cruzi, TULAHUEN) [µM]	S.I. (selectivity index) [1]	EC50 (RAW 264.7 cells) [µM]	lowest concentration with significant amastigote growth inhibition compared with host cell toxicity ([1]; T. cruzi vs LLC-MK2, p < 0.05) [µM]	viability at 1 µM ([1]; Trypanosoma cruzi, TULAHUEN, LLC-MK2, T. cruzi amastigotes at 1.0 μM, read-out: amastigote viability) [%]	% Viability T. cruzi amastigotes ([1]; screening at 50 μM, 120 h, compared with untreated controls, 50 µM) [%]
COc1cc(/C=C/c2nc(-c3ccccc3)no2)cc(OC)c1OC [Compound 12, (E)-3-phenyl-5-[2-(3,4,5-trimethoxyphenyl)vinyl]-1,2,4-oxadiazole]	2.42	43.5 ± 1.8	37.8 ± 2.6	22.5 ± 3.7	>4.5	> 100	–	–	–
COc1cc(/C=C/c2nc(-c3cc(OC)c(OC)c(OC)c3)no2)cc(OC)c1OC [Compound 23, (E)-3-(3,4,5-trimethoxyphenyl)-5-[2-(3,4,5-trimethoxyphenyl)-vinyl]-1,2,4-oxadiazole]	0.94	12.4 ± 2.5	8.6 ± 1.2	2.9 ± 0.2	26.7	> 100	1.0	81.3 ± 6.2	–
C(=C\c1nc(-c2ccccc2)no1)/c1cccnc1 [Compound 15, (E)-3-phenyl-5-[2-pyridyn-3-yl-vinyl]-1,2,4-oxadiazole]	0.97	26.7 ± 7.2	33.8	33.8 ± 2.3	>3.0	–	–	–	21.5 ± 2.2
COc1cc(-c2noc(/C=C/c3ccc4c(c3)OCO4)n2)cc(OC)c1OC [Compound 24, (E)-3-(3,4,5-trimethoxyphenyl)-5-[2-(3,4-methylenedioxy-phenyl)vinyl]-1,2,4-oxadiazole]	1.37	82.6 ± 10.8	42.2 ± 2.7	28.7 ± 3.1	1.9	58.8 ± 6.1	–	–	–
